Measurements reported in PubChem BioAssay (NCI).
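Test compounds were applied to cells in 96-well plates for 48 hours at 5 doses. GI50: concentration for 50% inhibition of growth. The concentration for full growth arrest is given as TGI.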

How the values were obtained:
Assay in all cases: NCI-60 cell line screen, 48 h
HS 578T breast = system: HS 578T breast
OVCAR-3 ovarian = system: OVCAR-3 ovarian
NCI/ADR-RES ovarian = system: NCI/ADR-RES ovarian
SN12C renal = system: SN12C renal
NCI-H23 lung = system: NCI-H23 lung
SNB-19 CNS = system: SNB-19 CNS
UO-31 renal = system: UO-31 renal
LOX IMVI melanoma = system: LOX IMVI melanoma
HOP-62 NSCLC = system: HOP-62 NSCLC
MOLT-4 leukemia = system: MOLT-4 leukemia
SNB-75 CNS = system: SNB-75 CNS
OVCAR-4 ovarian = system: OVCAR-4 ovarian
RPMI-8226 leukemia = system: RPMI-8226 leukemia
MCF7 breast = system: MCF7 breast
NCI-H460 lung = system: NCI-H460 lung
OVCAR-8 ovarian = system: OVCAR-8 ovarian
SF-295 CNS = system: SF-295 CNS
T-47D breast = system: T-47D breast
SF-539 CNS = system: SF-539 CNS
KM12 colon = system: KM12 colon
TK-10 renal = system: TK-10 renal
RXF 393 renal = system: RXF 393 renal
IGROV1 ovarian = system: IGROV1 ovarian
SK-OV-3 ovarian = system: SK-OV-3 ovarian
HCT-15 colon = system: HCT-15 colon
M14 melanoma = system: M14 melanoma
MALME-3M melanoma = system: MALME-3M melanoma
UACC-257 melanoma = system: UACC-257 melanoma
SK-MEL-2 melanoma = system: SK-MEL-2 melanoma
A549 NSCLC = system: A549 NSCLC
CCRF-CEM leukemia = system: CCRF-CEM leukemia
MDA-MB-231 breast = system: MDA-MB-231 breast
NCI-H522 lung = system: NCI-H522 lung
SK-MEL-5 melanoma = system: SK-MEL-5 melanoma
HOP-92 NSCLC = system: HOP-92 NSCLC
PC-3 prostate = system: PC-3 prostate
MDA-MB-435 = system: MDA-MB-435
SW-620 colon = system: SW-620 colon
OVCAR-5 ovarian = system: OVCAR-5 ovarian
SK-MEL-28 melanoma = system: SK-MEL-28 melanoma
HT29 colon = system: HT29 colon
SF-268 CNS = system: SF-268 CNS
786-0 renal = system: 786-0 renal
SR leukemia = system: SR leukemia
HL-60(TB) leukemia = system: HL-60(TB) leukemia
U251 CNS = system: U251 CNS
MDA-MB-468 breast = system: MDA-MB-468 breast
ACHN renal = system: ACHN renal
DU-145 prostate = system: DU-145 prostate
UACC-62 melanoma = system: UACC-62 melanoma
COLO 205 colon = system: COLO 205 colon
EKVX NSCLC = system: EKVX NSCLC
A498 renal = system: A498 renal
CAKI-1 renal = system: CAKI-1 renal
HCC-2998 colon = system: HCC-2998 colon
K-562 leukemia = system: K-562 leukemia

Compound `CCC[Se]C(=O)c1ccc(C(=O)[Se]CCC)s1` has a GI50 (HS 578T breast) of less than 10 nM, a TGI (HS 578T breast) of 411 nM and a GI50 (OVCAR-3 ovarian) of 103 nM. For the same compound, the TGI (OVCAR-3 ovarian) was 370 nM, the GI50 (NCI/ADR-RES ovarian) was less than 10 nM and the GI50 (SN12C renal) was less than 10 nM. It also gave a GI50 (NCI-H23 lung) of 19.7 nM, a TGI (NCI-H23 lung) of 114 nM and a GI50 (SNB-19 CNS) of less than 10 nM. It also gave a TGI (SNB-19 CNS) of 131 nM, a GI50 (UO-31 renal) of less than 20 nM and a TGI (UO-31 renal) of 341 nM. It also gave a GI50 (LOX IMVI melanoma) of less than 13.1 nM, a TGI (LOX IMVI melanoma) of less than 34.6 nM and a GI50 (HOP-62 NSCLC) of less than 12 nM. The TGI (HOP-62 NSCLC) was 63.3 nM, the GI50 (MOLT-4 leukemia) was less than 10 nM and the TGI (MOLT-4 leukemia) was 5100 nM. The GI50 (SNB-75 CNS) was less than 33.6 nM, the TGI (SNB-75 CNS) was 3070 nM and the GI50 (OVCAR-4 ovarian) was 2870 nM. The TGI (OVCAR-4 ovarian) was 30000 nM, the GI50 (RPMI-8226 leukemia) was 300 nM and the TGI (RPMI-8226 leukemia) was 2000 nM. It also gave a GI50 (MCF7 breast) of less than 10 nM, a TGI (MCF7 breast) of 170 nM and a GI50 (NCI-H460 lung) of less than 10 nM. It also gave a TGI (NCI-H460 lung) of 10.4 nM, a GI50 (OVCAR-8 ovarian) of less than 10 nM and a TGI (OVCAR-8 ovarian) of 45.7 nM. For the same compound, the GI50 (SF-295 CNS) was less than 14.4 nM, the TGI (SF-295 CNS) was less than 38.5 nM and the GI50 (T-47D breast) was 1030 nM. The TGI (T-47D breast) was 10700 nM, the GI50 (SF-539 CNS) was less than 10.7 nM and the TGI (SF-539 CNS) was less than 21.8 nM. It also gave a GI50 (KM12 colon) of 27.6 nM, a TGI (KM12 colon) of 1300 nM and a GI50 (TK-10 renal) of 121 nM. For the same compound, the TGI (TK-10 renal) was 1320 nM, the GI50 (RXF 393 renal) was less than 10 nM and the TGI (RXF 393 renal) was 64.4 nM. It also gave a GI50 (IGROV1 ovarian) of less than 13.1 nM, a TGI (IGROV1 ovarian) of 234 nM and a GI50 (SK-OV-3 ovarian) of 39.5 nM. It also gave a TGI (SK-OV-3 ovarian) of 837 nM, a GI50 (HCT-15 colon) of 54.6 nM and a TGI (HCT-15 colon) of 217 nM. The GI50 (M14 melanoma) was less than 10 nM, the TGI (M14 melanoma) was less than 21.1 nM and the GI50 (MALME-3M melanoma) was less than 35.2 nM. It also gave a TGI (MALME-3M melanoma) of 118 nM, a GI50 (UACC-257 melanoma) of 58.7 nM and a TGI (UACC-257 melanoma) of 1160 nM. It also gave a GI50 (SK-MEL-2 melanoma) of 40.8 nM, a TGI (SK-MEL-2 melanoma) of 1140 nM and a GI50 (A549 NSCLC) of less than 10 nM. The TGI (A549 NSCLC) was 85 nM, the GI50 (CCRF-CEM leukemia) was 1660 nM and the TGI (CCRF-CEM leukemia) was 16100 nM. For the same compound, the GI50 (MDA-MB-231 breast) was less than 10 nM, the TGI (MDA-MB-231 breast) was less than 20 nM and the GI50 (NCI-H522 lung) was 943 nM. The TGI (NCI-H522 lung) was 2770 nM, the GI50 (SK-MEL-5 melanoma) was less than 49.1 nM and the TGI (SK-MEL-5 melanoma) was 159 nM. For the same compound, the GI50 (HOP-92 NSCLC) was less than 18.9 nM, the GI50 (PC-3 prostate) was 22.4 nM and the TGI (PC-3 prostate) was 2890 nM. It also gave a GI50 (MDA-MB-435) of less than 10 nM, a TGI (MDA-MB-435) of 19.9 nM and a GI50 (SW-620 colon) of 57.3 nM. For the same compound, the TGI (SW-620 colon) was 320 nM, the GI50 (OVCAR-5 ovarian) was less than 16.2 nM and the TGI (OVCAR-5 ovarian) was 455 nM. It also gave a GI50 (SK-MEL-28 melanoma) of less than 10 nM, a TGI (SK-MEL-28 melanoma) of 29.4 nM and a GI50 (HT29 colon) of less than 10 nM. It also gave a TGI (HT29 colon) of 112 nM, a GI50 (SF-268 CNS) of less than 11 nM and a TGI (SF-268 CNS) of 67.5 nM. The GI50 (786-0 renal) was 172 nM, the TGI (786-0 renal) was 2250 nM and the GI50 (SR leukemia) was 38.6 nM. It also gave a TGI (SR leukemia) of 10300 nM, a GI50 (HL-60(TB) leukemia) of less than 10 nM and a TGI (HL-60(TB) leukemia) of 662 nM. It also gave a GI50 (U251 CNS) of less than 10.6 nM, a TGI (U251 CNS) of 139 nM and a GI50 (MDA-MB-468 breast) of less than 18 nM. The TGI (MDA-MB-468 breast) was 75 nM, the GI50 (ACHN renal) was 110 nM and the TGI (ACHN renal) was 1220 nM. For the same compound, the GI50 (DU-145 prostate) was 95.5 nM, the TGI (DU-145 prostate) was 1300 nM and the GI50 (UACC-62 melanoma) was 22.5 nM. For the same compound, the TGI (UACC-62 melanoma) was 556 nM, the GI50 (COLO 205 colon) was 639 nM and the TGI (COLO 205 colon) was 2100 nM. The GI50 (EKVX NSCLC) was less than 24.6 nM, the TGI (EKVX NSCLC) was 82.1 nM and the GI50 (A498 renal) was 63.5 nM. For the same compound, the TGI (A498 renal) was 917 nM, the GI50 (CAKI-1 renal) was less than 11.2 nM and the TGI (CAKI-1 renal) was 175 nM. The GI50 (HCC-2998 colon) was 239 nM, the TGI (HCC-2998 colon) was 1840 nM and the GI50 (K-562 leukemia) was 41.4 nM. The TGI (K-562 leukemia) was 21400 nM.
